Measured values published in publication PMC261875, “Biochemical Characterization of DNA Damage Checkpoint Complexes: Clamp Loader and Clamp Complexes with Specificity for 5′ Recessed DNA” (PLoS Biology, 2003).

How the values were obtained:
[1] = tested on: T1, RSR (Rad17–Rfc2–Rfc3–Rfc4–Rfc5) complex; assay: bead pull-down of clamp-clamp loader-DNA ternary complex, Western blot; assay type: binding; conditions: 1 mM ATPγS, 7 mM MgCl2, pH 7.5, 30 °C; RHR clamp, human RPA, 5' recessed primer-template DNA; nonhydrolyzable ATP analog
T1 construct: untagged
T1 sequence (O75943 whole entry): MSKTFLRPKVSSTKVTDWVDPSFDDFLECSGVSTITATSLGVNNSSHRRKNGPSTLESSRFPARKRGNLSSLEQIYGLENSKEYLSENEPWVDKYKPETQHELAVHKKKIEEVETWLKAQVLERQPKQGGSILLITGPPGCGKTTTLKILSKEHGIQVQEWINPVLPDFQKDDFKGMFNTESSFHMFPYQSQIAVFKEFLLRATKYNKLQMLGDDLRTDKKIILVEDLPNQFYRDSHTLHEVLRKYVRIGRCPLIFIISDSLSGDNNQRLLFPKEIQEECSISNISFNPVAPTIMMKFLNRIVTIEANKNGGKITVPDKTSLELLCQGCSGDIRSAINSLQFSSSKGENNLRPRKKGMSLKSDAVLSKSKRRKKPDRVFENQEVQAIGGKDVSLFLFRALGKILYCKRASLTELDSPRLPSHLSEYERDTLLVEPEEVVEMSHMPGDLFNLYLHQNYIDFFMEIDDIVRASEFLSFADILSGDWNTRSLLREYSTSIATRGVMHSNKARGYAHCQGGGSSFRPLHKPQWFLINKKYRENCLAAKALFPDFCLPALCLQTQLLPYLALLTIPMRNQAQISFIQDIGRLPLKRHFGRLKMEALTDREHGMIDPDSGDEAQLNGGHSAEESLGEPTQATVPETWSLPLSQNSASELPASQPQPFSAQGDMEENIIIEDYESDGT
T1 sequence (P35250 whole entry, further chain): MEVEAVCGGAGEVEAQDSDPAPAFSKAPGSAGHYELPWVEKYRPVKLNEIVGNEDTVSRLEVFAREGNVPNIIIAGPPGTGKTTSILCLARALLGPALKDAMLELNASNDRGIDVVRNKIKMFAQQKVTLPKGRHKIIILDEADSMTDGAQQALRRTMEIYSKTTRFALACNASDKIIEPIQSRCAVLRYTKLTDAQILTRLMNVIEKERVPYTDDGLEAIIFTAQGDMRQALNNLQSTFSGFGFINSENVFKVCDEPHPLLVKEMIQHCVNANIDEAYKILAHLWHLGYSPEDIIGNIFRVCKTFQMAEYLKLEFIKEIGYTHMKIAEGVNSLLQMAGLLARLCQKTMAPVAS
T1 sequence (P40938 whole entry, further chain): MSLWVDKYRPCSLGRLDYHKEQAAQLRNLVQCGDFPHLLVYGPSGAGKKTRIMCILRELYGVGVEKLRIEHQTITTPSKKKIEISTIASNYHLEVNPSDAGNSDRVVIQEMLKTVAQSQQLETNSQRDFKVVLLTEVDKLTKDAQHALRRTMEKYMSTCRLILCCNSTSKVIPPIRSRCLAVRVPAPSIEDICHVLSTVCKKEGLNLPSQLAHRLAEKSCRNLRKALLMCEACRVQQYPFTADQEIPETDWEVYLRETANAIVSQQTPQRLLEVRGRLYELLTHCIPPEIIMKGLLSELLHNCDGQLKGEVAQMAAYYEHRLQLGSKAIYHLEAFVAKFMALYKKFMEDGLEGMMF
T1 sequence (P35249 whole entry, further chain): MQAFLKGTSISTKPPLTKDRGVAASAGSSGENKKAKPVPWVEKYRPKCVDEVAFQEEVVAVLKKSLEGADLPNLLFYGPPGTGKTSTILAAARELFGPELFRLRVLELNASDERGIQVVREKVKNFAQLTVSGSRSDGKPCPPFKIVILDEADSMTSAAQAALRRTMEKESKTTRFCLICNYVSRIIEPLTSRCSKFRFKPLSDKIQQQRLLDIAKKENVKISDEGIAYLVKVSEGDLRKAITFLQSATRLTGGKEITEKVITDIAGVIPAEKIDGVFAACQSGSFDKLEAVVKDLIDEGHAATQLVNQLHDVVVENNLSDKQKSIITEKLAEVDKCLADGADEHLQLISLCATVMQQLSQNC
T1 sequence (P40937 whole entry, further chain): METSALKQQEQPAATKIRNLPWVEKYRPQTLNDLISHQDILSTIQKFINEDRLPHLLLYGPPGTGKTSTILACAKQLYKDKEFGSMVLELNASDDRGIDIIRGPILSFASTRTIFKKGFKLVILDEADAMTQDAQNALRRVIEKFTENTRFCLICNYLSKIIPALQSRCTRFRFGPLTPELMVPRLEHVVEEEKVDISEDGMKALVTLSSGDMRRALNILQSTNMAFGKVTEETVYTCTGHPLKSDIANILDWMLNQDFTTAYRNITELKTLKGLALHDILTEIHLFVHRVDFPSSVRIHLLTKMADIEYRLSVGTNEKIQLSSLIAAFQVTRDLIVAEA

[2] = tested on: T2, RFC (replication factor C); assay: as above; assay type: binding; conditions: 1 mM ATPγS, 7 mM MgCl2, pH 7.5, 30 °C; PCNA clamp, human RPA, 3' recessed primer-template DNA; nonhydrolyzable ATP analog
T2 construct: gene RFC1
T2 sequence (P35251 whole entry): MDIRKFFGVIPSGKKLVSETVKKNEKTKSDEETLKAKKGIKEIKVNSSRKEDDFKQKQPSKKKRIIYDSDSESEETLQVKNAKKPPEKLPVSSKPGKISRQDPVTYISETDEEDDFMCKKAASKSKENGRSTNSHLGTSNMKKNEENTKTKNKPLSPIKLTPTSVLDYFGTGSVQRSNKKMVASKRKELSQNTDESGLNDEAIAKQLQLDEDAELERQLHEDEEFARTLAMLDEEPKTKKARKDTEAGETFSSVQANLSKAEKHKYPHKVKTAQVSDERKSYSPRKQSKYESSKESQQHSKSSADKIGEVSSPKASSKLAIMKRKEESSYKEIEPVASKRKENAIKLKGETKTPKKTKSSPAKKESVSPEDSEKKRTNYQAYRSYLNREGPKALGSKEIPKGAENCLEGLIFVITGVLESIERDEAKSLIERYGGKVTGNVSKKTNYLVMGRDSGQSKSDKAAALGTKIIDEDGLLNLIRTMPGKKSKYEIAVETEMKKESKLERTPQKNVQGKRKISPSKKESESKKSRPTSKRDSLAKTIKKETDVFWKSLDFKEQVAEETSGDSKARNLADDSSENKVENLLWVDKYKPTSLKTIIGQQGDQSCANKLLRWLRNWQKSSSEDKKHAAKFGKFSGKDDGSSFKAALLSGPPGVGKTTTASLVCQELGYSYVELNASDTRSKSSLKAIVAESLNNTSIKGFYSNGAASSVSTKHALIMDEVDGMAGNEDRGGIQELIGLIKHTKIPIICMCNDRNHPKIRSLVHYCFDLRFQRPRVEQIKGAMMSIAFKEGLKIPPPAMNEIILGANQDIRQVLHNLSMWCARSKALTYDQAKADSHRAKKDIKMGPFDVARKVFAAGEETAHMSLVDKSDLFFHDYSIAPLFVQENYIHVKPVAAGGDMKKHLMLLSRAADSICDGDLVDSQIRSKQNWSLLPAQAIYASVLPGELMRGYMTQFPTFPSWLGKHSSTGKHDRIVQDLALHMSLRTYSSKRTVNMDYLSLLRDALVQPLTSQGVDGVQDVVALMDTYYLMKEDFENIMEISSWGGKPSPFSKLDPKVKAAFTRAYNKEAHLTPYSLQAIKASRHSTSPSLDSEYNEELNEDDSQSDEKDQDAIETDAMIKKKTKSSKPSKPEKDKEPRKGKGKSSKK
T2 sequence (P35250 whole entry, further chain): as the sequence (P35250 whole entry, further chain) above
T2 sequence (P40938 whole entry, further chain): as the sequence (P40938 whole entry, further chain) above
T2 sequence (P35249 whole entry, further chain): as the sequence (P35249 whole entry, further chain) above
T2 sequence (P40937 whole entry, further chain): as the sequence (P40937 whole entry, further chain) above

Nc1ncnc2c1ncn2[C@@H]1O[C@H](COP(=O)(O)OP(=O)(O)OP(O)(O)=S)[C@@H](O)[C@H]1O [ATPγS, adenosine 5′-O-3′-thiotriphosphate]
bead pull-down of clamp-clamp loader-DNA ternary complex, Western blot [1]: in the presence of ATPγS ternary complex formation, but not clamp loading
bead pull-down of clamp-clamp loader-DNA ternary complex, Western blot [2]: ternary complex formation on both substrates in the presence of ATPγS was observed
